# Reference: patent publication US11840525B2, “Use of AURKB small-molecule inhibitors for treatment of non-small cell lung cancer” (Nanjing China-Australia Institute of Translational Medicine …, priority 2016, dated 2023)
# Where two headings read alike, the source gives them in different places.
# Key:
# [1] = molecular target: AURKB (Homo sapiens, UniProt Q96GD4); test: In vitro phosphorylation (kinase activity) assay with Flag-AURKB and histone H3; format: biochemical; design: made in house; host or cells: 293T cells (transfected with pcDNA-AURKB-Flag); conditions: 2 μM of TZ47, Flag-AURKB, histone H3 substrate
# Chain of AURKB (Q96GD4 1-345 isoform Q96GD4-5): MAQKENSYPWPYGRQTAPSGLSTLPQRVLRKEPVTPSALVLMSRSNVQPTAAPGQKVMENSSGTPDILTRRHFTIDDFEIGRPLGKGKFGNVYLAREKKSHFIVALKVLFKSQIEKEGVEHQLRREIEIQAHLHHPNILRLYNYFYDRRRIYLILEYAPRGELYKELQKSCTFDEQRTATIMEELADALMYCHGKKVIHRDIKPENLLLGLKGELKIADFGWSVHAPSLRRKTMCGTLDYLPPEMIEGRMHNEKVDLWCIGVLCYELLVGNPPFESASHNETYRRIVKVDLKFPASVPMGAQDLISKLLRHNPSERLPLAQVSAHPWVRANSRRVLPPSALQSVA
# Experimental: Thus, it is speculated that the treatment affected the activity of a kinase which was able to phosphorylate the H3S10. The following procedures were conducted to verify whether TZ47 inhibited the activity of AURKB directly. First, prokaryotic expression of AURKB protein and purification were performed and then a microscale thermophoresis (MST) was used to detect the binding between TZ47 and AURKB protein by testing the change of microscale thermophoresis caused by the hydrated layer (generally derived from the change of the structure/conformation of biomolecules) based on the directional movement of particles in a microscopic temperature gradient. […] Flag-tagged AURKB protein was then enriched by M2-flag beads (anti-Flag antibody conjugated) from the lysed liquid of 293T cells and used in the in-vitro kinase activity analysis. It can be seen from FIGS. 6A-6B that the Flag-AURKB protein had kinase activity and can phosphorylate histone H3.
# The components were mixed according to the above specifications, and reacted at 30° C. for 30 min. After the reaction was completed, the reaction mixture was subjected to western blot assay.
# [2] = test system: A549 cells; test: Transwell cell migration test; format: cell-based; conditions: 2 μM, 12 h
# Experimental: In addition, Transwell test was also conducted to determine the effect of the expression level of AURKB on the cell migration ability. Similarly, TZ47 (2 μM) was used to treat cells in the Transwell test. […] At the same time, compared to the control scr cells, AURKB-kd cells can partially antagonize the inhibitory effect of TZ47 on cell migration (FIGS. 10A-10B). […] The specific steps were described as follows. • a. Cell migration test • 1) The cells to be tested in the logarithmic growth phase was digested with trypsin and centrifuged to collect the cells. Then the cells were washed once with PBS and resuspended with serum-free DMEM for counting. • 2) 500 μl, of DMEM medium containing 10% FBS was added to a 24-well plate and a Transwell chamber was carefully placed into the plate to prevent air bubbles. Then 100 μL of cell suspension (about 50,000 cells) was added to the Transwell chamber, and a TZ47 solution (final concentration: 2 μM) was simultaneously added to the TZ47 treatment group. The 24-well plate was incubated at 37° C. and 5% CO2 in a cell incubator for 12 h. • 3) The Transwell chamber was removed from the plate and washed in PBS to remove the medium. […]
# [3] = test system: A549 cells; test: Colony formation assay; format: cell-based; conditions: 2 μM, 2 weeks
# [4] = test system: A549 cells; test: CCK-8 growth inhibition of A549 lung cancer cells; format: cell-based; conditions: Homo sapiens
# Experimental: (§1) Lung cancer cells A549 were separated into a 96-well plate and respectively added with 10 mM TZ47 stock solution to final concentrations of 0 μM, 0.1 μM, 0.5 μM, 1 μM, 2 μM, 4 μM and 8 μM in respective wells. Then the 96-well plate was incubated at 37° C. for 48 h and the growth of the cells was analyzed by a CCK-8 method. […] It can be seen from Table 1 that TZ47 also plays a desirable role in inhibiting the growth of other cancer cells including colorectal cancer, leukemia, liver cancer, melanoma, breast cancer and ovarian cancer.
# [5] = molecular target: GST protein (Schistosoma japonicum, UniProt P08515); test: Microscale thermophoresis (MST) binding to control GST protein
# Chain of GST protein (P08515 whole entry): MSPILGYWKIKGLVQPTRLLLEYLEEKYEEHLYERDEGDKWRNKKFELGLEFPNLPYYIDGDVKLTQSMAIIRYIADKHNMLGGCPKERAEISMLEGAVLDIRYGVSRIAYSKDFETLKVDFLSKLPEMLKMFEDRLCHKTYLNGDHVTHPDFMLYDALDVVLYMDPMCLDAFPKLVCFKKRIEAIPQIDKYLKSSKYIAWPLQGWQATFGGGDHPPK
# [6] = test system: A375; test: Growth inhibition of tumor cells, A375; format: cell-based; conditions: Homo sapiens, A-375; read-out: IC50 against tumor cells, A375
# Experimental: as §1
# [7] = test system: A549 cells; test: Apoptosis of A549 cells by flow cytometry; format: cell-based; conditions: flow cytometer
# Excerpt: To elucidate how TZ47 induced the cell death, a flow cytometer was applied to measure and analyze the apoptosis of cells in solvent (DMSO) control group and the treatment groups with different gradients of TZ47 in the use of a cell apoptosis detection kit.
smiles,measurement,setting,value
c1ccc2c(Cc3[nH]c4ccccc4c3Cc3c[nH]c4ccccc34)c[nH]c2c1 [TZ47],kinase activity of AURKB,[1],completely inhibited
same,migration ability of cells,[2],significantly showed inhibitory effect
same,colony formation in control cells,[3],significantly inhibited
same,IC50,"[4]; CCK-8, 48 h, read-out: IC50 of TZ47 against A549",0.73 µM
same,IC50,"[4]; read-out: IC50 against tumor cells, A549",0.73 ± 0.24 µM
same,binding to control GST protein,[5],did not bind
same,IC50,[6],1.4 ± 0.11 µM
same,"apoptosis, 1 μM and 2 μM treatment groups",[7]; 1 μM and 2 μM,no significant difference
same,proportion of early apoptotic cells,[7]; 4 μM,significantly increased
